In patent US9833497B2, “Human originated EGF domain proteins and use of the same” (CHENGDU SOURCEBIO LIMITED-LIABILITY COMPANY, priority 2013, dated 2017):

Assays:
Assay type in all cases: cell-based
[1] = system: Klebsiella pneumonia; experiment: MIC against Gram-negative bacteria: Klebsiella pneumonia
Procedure, shortened: (§1)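 Bacteria grown in LB at 37° C with shaking to McFarland 0.5, pelleted and resuspended in fresh LB, then seeded at 5×10^5 CFU/mL per well. Purified recombinant human EGF domain proteins were two-fold serially diluted in triplicate and plates shaken at 37° C, 175 rpm. MIC is the lowest protein concentration with no bacterial growth.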

[2] = system: E. coli DH5α; experiment: Antibacterial activity: MIC and growth curve against E. coli DH5α in 96-well plate; details: minimal inhibitory concentration against E. coli DH5α; 96-well plate, 5×10^5 CFU/mL, 37° C., judged after 8 h
Procedure, shortened: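 Log-phase DH5α (OD600 about 0.5, 37° C, 185 rpm in LB) was pelleted, resuspended in fresh LB and seeded at 5×10^5 CFU/mL with recombinant protein at 50, 25 and 12.5 μg/mL (two-fold series), in triplicate. Plates were shaken at 175 rpm, 37° C, and OD600 was read every 30 min. MIC was the lowest concentration with no growth.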

[3] = system: Aeromonas hydrophila; experiment: MIC against Gram-negative bacteria: Aeromonas hydrophila
Procedure, shortened: as §1

[4] = system: Moraxella catarrhalis; experiment: MIC against Gram-negative bacteria: Moraxella catarrhalis
Procedure, shortened: as §1

[5] = system: E. coli BL21; experiment: MIC against Gram-negative bacteria: E. coli BL21
Procedure, shortened: as §1

[6] = system: Proteus vulgaris; experiment: MIC against Gram-negative bacteria: Proteus vulgaris
Procedure, shortened: as §1

[7] = system: Proteus mirabilis; experiment: MIC against Gram-negative bacteria: Proteus mirabilis
Procedure, shortened: as §1

[8] = system: Serratia marcescens; experiment: MIC against Gram-negative bacteria: Serratia marcescens
Procedure, shortened: as §1

[9] = system: Citrobacter diversus; experiment: MIC against Gram-negative bacteria: Citrobacter diversus
Procedure, shortened: as §1

[10] = system: Enterobacter cloacae; experiment: MIC against Gram-negative bacteria: Enterobacter cloacae
Procedure, shortened: as §1

[11] = system: Pseudomonas aeruginosa; experiment: MIC against Gram-negative bacteria: Pseudomonas aeruginosa
Procedure, shortened: as §1

[12] = Klebsiella pneumonia, 5×10^5 CFU/mL, 10 h cultivation at 37° C.
[13] = Aeromonas hydrophila, 5×10^5 CFU/mL, 10 h cultivation at 37° C.
[14] = Moraxella catarrhalis, 5×10^5 CFU/mL, 10 h cultivation at 37° C.
[15] = E. coli BL21, 5×10^5 CFU/mL, 10 h cultivation at 37° C.
[16] = Proteus vulgaris, 5×10^5 CFU/mL, 10 h cultivation at 37° C.
[17] = Proteus mirabilis, 5×10^5 CFU/mL, 10 h cultivation at 37° C.
[18] = Serratia marcescens, 5×10^5 CFU/mL, 10 h cultivation at 37° C.
[19] = Citrobacter diversus, 5×10^5 CFU/mL, 10 h cultivation at 37° C.
[20] = Enterobacter cloacae, 5×10^5 CFU/mL, 10 h cultivation at 37° C.
[21] = Pseudomonas aeruginosa, 5×10^5 CFU/mL, 10 h cultivation at 37° C.
[22] = 96-well plate, 5×10^5 CFU/mL, 37° C., 10 h
[23] = 10 h cultivation at 37° C., 5×10^5 CFU/mL, two-fold serial dilution

PRT1351 (TAVCQSPCLNGGKCVRPNRCHCLSSWTGHNCS; listed as Homo sapiens)
MIC against K. pneumonia [1, 12]: 25 µg/mL | MIC [2]: 25 µg/mL | MIC against A. hydrophila [3, 13]: 12.5 µg/mL | MIC against M. catarrhalis [4, 14]: 25 µg/mL | MIC against E. coli BL21 [5, 15]: 25 µg/mL | MIC against P. vulgaris [6, 16]: 25 µg/mL | MIC against P. mirabilis [7, 17]: 12.5 µg/mL | MIC against S. marcescens [8, 18]: 12.5 µg/mL | MIC against C. diversus [9, 19]: 12.5 µg/mL | MIC against E. cloacae [10, 20]: 12.5 µg/mL | MIC against P. aeruginosa [11, 21]: 50 µg/mL

PRT649 (DVDECLEPNVCANGDCSNLEGSYMCSCHKGYTRTPDHKHCR; listed as Homo sapiens)
MIC K. pneumonia [1, 22]: 12.5 µg/mL | MIC [2]: 50 µg/mL | MIC A. hydrophila [3, 22]: 12.5 µg/mL | MIC M. catarrhalis [4, 22]: 12.5 µg/mL | MIC E. coli BL21 [5, 22]: 12.5 µg/mL | MIC P. vulgaris [6, 22]: 50 µg/mL | MIC P. mirabilis [7, 22]: 25 µg/mL | MIC S. marcescens [8, 22]: 25 µg/mL | MIC C. diversus [9, 22]: 50 µg/mL | MIC E. cloacae [10, 22]: 50 µg/mL | MIC P. aeruginosa [11, 22]: 50 µg/mL

PRT896 (EVNECNSNPCVHGACRDSLNGYKCDCDPGWSGTNCD; listed as Homo sapiens)
MIC ([1]; K. pneumonia, 10 h cultivation at 37° C.): 12.5 µg/mL | MIC [2]: 25 µg/mL | MIC ([3]; A. hydrophila, 10 h cultivation at 37° C.): 12.5 µg/mL | MIC ([4]; M. catarrhalis, 10 h cultivation at 37° C.): 12.5 µg/mL | MIC ([5]; E. coli BL21, 10 h cultivation at 37° C.): 50 µg/mL | MIC ([6]; P. vulgaris, 10 h cultivation at 37° C.): 50 µg/mL | MIC ([7]; P. mirabilis, 10 h cultivation at 37° C.): 25 µg/mL | MIC ([8]; S. marcescens, 10 h cultivation at 37° C.): 12.5 µg/mL | MIC ([9]; C. diversus, 10 h cultivation at 37° C.): 50 µg/mL | MIC ([10]; E. cloacae, 10 h cultivation at 37° C.): 50 µg/mL | MIC ([11]; P. aeruginosa, 10 h cultivation at 37° C.): 25 µg/mL

PRT1126 (DVRACSSAPCANNRTCVSLDDGLYECSCAPGYSGKDCQ; listed as Homo sapiens)
MIC K. pneumonia [1, 23]: 12.5 µg/mL | MIC [2]: 25 µg/mL | MIC A. hydrophila [3, 23]: 25 µg/mL | MIC M. catarrhalis [4, 23]: 12.5 µg/mL | MIC E. coli BL21 [5, 23]: 50 µg/mL | MIC P. vulgaris [6, 23]: 12.5 µg/mL | MIC P. mirabilis [7, 23]: 50 µg/mL | MIC S. marcescens [8, 23]: 50 µg/mL | MIC C. diversus [9, 23]: 50 µg/mL | MIC E. cloacae [10, 23]: 25 µg/mL | MIC P. aeruginosa [11, 23]: 25 µg/mL

PRT1397 (PMNQCIDPSCGGHGSCIDGNCVCSAGYKGEHCE; listed as Homo sapiens)
MIC against K. pneumonia [1, 12]: 50 µg/mL | MIC [2]: 50 µg/mL | MIC against A. hydrophila [3, 13]: 50 µg/mL | MIC against M. catarrhalis [4, 14]: 12.5 µg/mL | MIC against E. coli BL21 [5, 15]: 25 µg/mL | MIC against P. vulgaris [6, 16]: 50 µg/mL | MIC against P. mirabilis [7, 17]: 25 µg/mL | MIC against S. marcescens [8, 18]: 25 µg/mL | MIC against C. diversus [9, 19]: 25 µg/mL | MIC against E. cloacae [10, 20]: 12.5 µg/mL | MIC against P. aeruginosa [11, 21]: 12.5 µg/mL

PRT816 (WGPDCSHPCNCSAGHGSCDAISGLCLCEAGYVGPRCE; listed as Homo sapiens)
MIC (μg/mL) K. pneumonia ([1]; K. pneumonia, 10 h cultivation at 37° C., 5×10^5 CFU/mL): 50 µg/mL | MIC [2]: 25 µg/mL | MIC (μg/mL) A. hydrophila ([3]; A. hydrophila, 10 h cultivation at 37° C., 5×10^5 CFU/mL): 12.5 µg/mL | MIC (μg/mL) M. catarrhalis ([4]; M. catarrhalis, 10 h cultivation at 37° C., 5×10^5 CFU/mL): 50 µg/mL | MIC (μg/mL) E. coli BL21 ([5]; E. coli BL21, 10 h cultivation at 37° C., 5×10^5 CFU/mL): 50 µg/mL | MIC (μg/mL) P. vulgaris ([6]; P. vulgaris, 10 h cultivation at 37° C., 5×10^5 CFU/mL): 25 µg/mL | MIC (μg/mL) P. mirabilis ([7]; P. mirabilis, 10 h cultivation at 37° C., 5×10^5 CFU/mL): 25 µg/mL | MIC (μg/mL) S. marcescens ([8]; S. marcescens, 10 h cultivation at 37° C., 5×10^5 CFU/mL): 12.5 µg/mL | MIC (μg/mL) C. diversus ([9]; C. diversus, 10 h cultivation at 37° C., 5×10^5 CFU/mL): 25 µg/mL | MIC (μg/mL) E. cloacae ([10]; E. cloacae, 10 h cultivation at 37° C., 5×10^5 CFU/mL): 25 µg/mL | MIC (μg/mL) P. aeruginosa ([11]; P. aeruginosa, 10 h cultivation at 37° C., 5×10^5 CFU/mL): 100 µg/mL

PRT1174 (DLNYCGTHQPCLNGGTCSNTGPDKYQCSCPEGYSGPNCE; listed as Homo sapiens)
MIC K. pneumonia [1, 23]: 50 µg/mL | MIC [2]: 12.5 µg/mL | MIC A. hydrophila [3, 23]: 50 µg/mL | MIC M. catarrhalis [4, 23]: 50 µg/mL | MIC E. coli BL21 [5, 23]: 50 µg/mL | MIC P. vulgaris [6, 23]: 25 µg/mL | MIC P. mirabilis [7, 23]: 12.5 µg/mL | MIC S. marcescens [8, 23]: 50 µg/mL | MIC C. diversus [9, 23]: 12.5 µg/mL | MIC E. cloacae [10, 23]: 12.5 µg/mL | MIC P. aeruginosa [11, 23]: 12.5 µg/mL

PRT530 (CSCDPEHADGCEQGSGRCHCKPNFHGDNCEKCAIGYYNFPFCLR; listed as Homo sapiens)
MIC against K. pneumonia [1, 22]: 50 µg/mL | MIC [2]: 50 µg/mL | MIC against A. hydrophila [3, 22]: 12.5 µg/mL | MIC against M. catarrhalis [4, 22]: 50 µg/mL | MIC against E. coli BL21 [5, 22]: 12.5 µg/mL | MIC against P. vulgaris [6, 22]: 12.5 µg/mL | MIC against P. mirabilis [7, 22]: 25 µg/mL | MIC against S. marcescens [8, 22]: 25 µg/mL | MIC against C. diversus [9, 22]: 25 µg/mL | MIC against E. cloacae [10, 22]: 25 µg/mL | MIC against P. aeruginosa [11, 22]: 25 µg/mL

PRT1291 (PIHACISNPCKHGGTCHLKEGEEDGFWCICADGFEGENCE; listed as Homo sapiens)
MIC against K. pneumonia ([1]; Klebsiella pneumonia, 96-well plate, 5×10^5 CFU/mL, 37° C., 10 h): 50 µg/mL | MIC [2]: 50 µg/mL | MIC against A. hydrophila ([3]; Aeromonas hydrophila, 96-well plate, 5×10^5 CFU/mL, 37° C., 10 h): 12.5 µg/mL | MIC against M. catarrhalis ([4]; Moraxella catarrhalis, 96-well plate, 5×10^5 CFU/mL, 37° C., 10 h): 12.5 µg/mL | MIC against E. coli BL21 ([5]; E. coli BL21, 96-well plate, 5×10^5 CFU/mL, 37° C., 10 h): 100 µg/mL | MIC against P. vulgaris ([6]; Proteus vulgaris, 96-well plate, 5×10^5 CFU/mL, 37° C., 10 h): 12.5 µg/mL | MIC against P. mirabilis ([7]; Proteus mirabilis, 96-well plate, 5×10^5 CFU/mL, 37° C., 10 h): 50 µg/mL | MIC against S. marcescens ([8]; Serratia marcescens, 96-well plate, 5×10^5 CFU/mL, 37° C., 10 h): 12.5 µg/mL | MIC against C. diversus ([9]; Citrobacter diversus, 96-well plate, 5×10^5 CFU/mL, 37° C., 10 h): 50 µg/mL | MIC against E. cloacae ([10]; Enterobacter cloacae, 96-well plate, 5×10^5 CFU/mL, 37° C., 10 h): 25 µg/mL | MIC against P. aeruginosa ([11]; Pseudomonas aeruginosa, 96-well plate, 5×10^5 CFU/mL, 37° C., 10 h): 25 µg/mL

PRT1103 (DHDECASSPCQNGAVCQDGIDGYSCFCVPGYQGRHCD; listed as Homo sapiens)
MIC K. pneumonia [1, 23]: 25 µg/mL | MIC [2]: 12.5 µg/mL | MIC A. hydrophila [3, 23]: 25 µg/mL | MIC M. catarrhalis [4, 23]: 25 µg/mL | MIC E. coli BL21 [5, 23]: 25 µg/mL | MIC P. vulgaris [6, 23]: 25 µg/mL | MIC P. mirabilis [7, 23]: 50 µg/mL | MIC S. marcescens [8, 23]: 12.5 µg/mL | MIC C. diversus [9, 23]: 12.5 µg/mL | MIC E. cloacae [10, 23]: 50 µg/mL | MIC P. aeruginosa [11, 23]: 12.5 µg/mL
